Results from publication PMC9090415, “Discovery of small molecule inhibitors of Plasmodium falciparum apicoplast DNA polymerase” (Journal of Enzyme Inhibition and Medicinal Chemistry, 2022).

Target: P. falciparum apicoplast DNA polymerase (Pf-apPOL) (Plasmodium falciparum, UniProt Q8ILY1)
Test: Fluorescence-based high-throughput DNA polymerase assay (molecular beacon), primary screen and dose-response
Assay type: biochemical
Method: The HT assay employs a molecular beacon, a stem-loop DNA template with a Cy3 dye and the Black Hole Quencher on the 3′ and 5′ ends of the DNA, respectively. Pf-apPOL concentration is based on a calculated absorptivity of ε280 = 56750 M^−1 cm^−1. Reactions were carried out at 25 °C, using Corning 3575 […] (well-volume, 20 µL). Assays testing for compound inhibition composed of reaction buffer (pH 7.9 in 50 mM potassium acetate, 20 mM Tris-acetate and 10 mM magnesium acetate), Pf-apPOL (20 nM), DNA substrate (20 nM), dNTPs (6 µM), and compound (10 µM in DMSO). The DNA and nucleotide substrates (dNTPs) were at concentrations of 20 nM and 6 µM, respectively, in the assay. Pf-apPOL was incubated in the reaction buffer with dNTPs and the compound of interest (10 µM, in the assay) at 25 °C for 10 min. The DNA substrate was then added and the reaction was allowed to proceed for 90 min at 25 °C.
Each assay plate contained 16 negative controls (no Pf-apPOL, DMSO present) and 16 positive controls (Pf-apPOL present, no DMSO). The fluorescence of each well was determined using a BioTek Synergy Neo fluorescence plate reader using excitation and emission wavelengths of 555 and 570 nm, respectively.
In the above, Min is the average of fluorescence emission of the negative controls (substrate only), Max the average fluorescence emission from the positive controls (enzyme + substrate), and Test the emission from the assays in the presence of compounds (enzyme + compound + substrates). […] […] The IC50 of each compound was determined using Equation (2): (2) IC50= Vmax/(1+ (I/IC50)^n)
In the above, n measures cooperativity, with n > 1 indicating synergistic binding of more than a single molecule of the compound.
To identify apPOL inhibitors we utilised our previously developed high-throughput DNA polymerase assay. The HT assay is based on a molecular beacon DNA template that forms a stem-loop with a Cy3 dye and the Black Hole Quencher on the 3′ and 5′ ends of the DNA, respectively. DNA polymerase activity extends an annealed primer through the stem region, displacing the fluorophore from the quencher, thereby increasing its fluorescence (Figure 1(A)). The assay accurately recapitulates the kinetic behaviour of apPOL, as measured through more conventional low-throughput gel-based assays. The Z′ factor for the assay described here was 0.9 across all plates (data not shown).
Figure 1. High-throughput screening. (A) The fluorescent-based DNA polymerase assay used to screen the compound libraries. The DNA template strand is a hairpin loop with a primer annealed to the loop. The 3’ end of the primer is 11 bases away from the 6 bp duplex. Strand displacement activity of the DNA polymerase separates the Cy3 dye from the Black hole quencher leading to an increase in fluorescent signal. (B) The high-throughput assay workflow. The DNA polymerase is incubated with […] compound for 10 min prior to addition of the hairpin substrate. The reaction is quenched at 3 different time points and the fluorescent signal is measured and % inhibition is determined using the provided equation.

Chain of P. falciparum apicoplast DNA polymerase (Pf-apPOL) (Q8ILY1 entry or part of it): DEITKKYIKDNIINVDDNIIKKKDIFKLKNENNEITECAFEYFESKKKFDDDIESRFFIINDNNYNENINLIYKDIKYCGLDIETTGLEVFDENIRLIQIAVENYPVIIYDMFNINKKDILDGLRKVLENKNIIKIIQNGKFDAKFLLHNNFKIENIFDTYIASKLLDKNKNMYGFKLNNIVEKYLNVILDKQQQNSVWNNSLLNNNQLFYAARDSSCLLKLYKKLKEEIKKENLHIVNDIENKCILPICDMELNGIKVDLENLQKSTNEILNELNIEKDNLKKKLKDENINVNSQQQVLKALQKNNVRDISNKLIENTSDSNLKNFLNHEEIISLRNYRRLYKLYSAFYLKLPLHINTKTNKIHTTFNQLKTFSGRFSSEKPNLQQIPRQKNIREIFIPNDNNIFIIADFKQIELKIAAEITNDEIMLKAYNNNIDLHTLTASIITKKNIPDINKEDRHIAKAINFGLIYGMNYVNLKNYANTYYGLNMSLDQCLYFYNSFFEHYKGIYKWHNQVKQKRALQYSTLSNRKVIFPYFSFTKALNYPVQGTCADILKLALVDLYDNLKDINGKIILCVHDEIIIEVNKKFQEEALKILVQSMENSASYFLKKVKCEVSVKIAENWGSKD

`O=[N+]([O-])c1cc2c(cc1CN1CCN(c3cccc(Cl)c3)CC1)OCO2` [KU0005610] was tested, and the “DNA Pol” value ('DNA Pol'; screening value, unit not given; 90 min, 10 µM) was 40, the “% inhibition Apo pol 10'” value (DRC-1; 10'; concentration 2.5) was 13.4536% and the “% inhibition Apo pol 10'” value (DRC-1; 10'; concentration 5) was 19.449%. The “% inhibition Apo pol 10'” value (DRC-1; 10'; concentration 10) was 35.0383%, the “% inhibition Apo pol 10'” value (DRC-1; 10'; concentration 20) was 58.0522% and the “% inhibition Apo pol 10'” value (DRC-1; 10'; concentration 40) was 81.6045%. For the same compound, the “% inhibition Apo pol 10'” value (DRC-1; 10'; concentration 80) was 82.8557%, the “% inhibition Apol 90'” value (DRC-1; 90'; concentration 2.5) was 0.2927% and the “% inhibition Apol 90'” value (DRC-1; 90'; concentration 5) was 2.869%. The “% inhibition Apol 90'” value (DRC-1; 90'; concentration 10) was 13.5382%, the “% inhibition Apol 90'” value (DRC-1; 90'; concentration 20) was 40.3549% and the “% inhibition Apol 90'” value (DRC-1; 90'; concentration 40) was 64.8091%. The “% inhibition Apol 90'” value (DRC-1; 90'; concentration 80) was 60.8313%, the “% inhibition apPOL 180'” value (DRC-1; 180'; concentration 2.5) was -5.629% and the “% inhibition apPOL 180'” value (DRC-1; 180'; concentration 5) was -4.543%. The “% inhibition apPOL 180'” value (DRC-1; 180'; concentration 10) was 2.609%, the “% inhibition apPOL 180'” value (DRC-1; 180'; concentration 20) was 32.6998% and the “% inhibition apPOL 180'” value (DRC-1; 180'; concentration 40) was 54.6533%. The “% inhibition apPOL 180'” value (DRC-1; 180'; concentration 80) was 41.754%, the “% inhibition Apo pol 5'” value (DRC-2, 5', concentration 2.5) was 6% and the “% inhibition Apo pol 5'” value (DRC-2, 5', concentration 5) was 11%. For the same compound, the “% inhibition Apo pol 5'” value (DRC-2, 5', concentration 10) was 25%, the “% inhibition Apo pol 5'” value (DRC-2, 5', concentration 20) was 34% and the “% inhibition Apo pol 5'” value (DRC-2, 5', concentration 40) was 45%. The “% inhibition Apo pol 5'” value (DRC-2, 5', concentration 80) was 49%, the “% inhibition Apol 40'” value (DRC-2, 40', concentration 2.5) was 2.55% and the “% inhibition Apol 40'” value (DRC-2, 40', concentration 5) was 6.48%. The “% inhibition Apol 40'” value (DRC-2, 40', concentration 10) was 18%, the “% inhibition Apol 40'” value (DRC-2, 40', concentration 20) was 28% and the “% inhibition Apol 40'” value (DRC-2, 40', concentration 40) was 49%. The “% inhibition Apol 40'” value (DRC-2, 40', concentration 80) was 61%, the “% inhibition ApPOL 90'” value (DRC-2, 90', concentration 2.5) was -0.242% and the “% inhibition ApPOL 90'” value (DRC-2, 90', concentration 5) was 1.42%. The “% inhibition ApPOL 90'” value (DRC-2, 90', concentration 10) was 11%, the “% inhibition ApPOL 90'” value (DRC-2, 90', concentration 20) was 20% and the “% inhibition ApPOL 90'” value (DRC-2, 90', concentration 40) was 45%. For the same compound, the “% inhibition ApPOL 90'” value (DRC-2, 90', concentration 80) was 61%, the “% inhibition apPOL 180'” value (DRC-2, 180', concentration 2.5) was -7.6% and the “% inhibition apPOL 180'” value (DRC-2, 180', concentration 5) was -5.3%. The “% inhibition apPOL 180'” value (DRC-2, 180', concentration 10) was 2.12%, the “% inhibition apPOL 180'” value (DRC-2, 180', concentration 20) was 7% and the “% inhibition apPOL 180'” value (DRC-2, 180', concentration 40) was 32%. For the same compound, the “% inhibition apPOL 180'” value (DRC-2, 180', concentration 80) was 53%, the “% inhibition Apo pol 5'” value (conc 5 (unit not given); 5'; DRC-2) was 11% and the “% inhibition ApPOL 90'” value (conc 10 (unit not given); 90'; DRC-2) was 11%. For the same compound, the “% inhibition Apo pol 5'” value (conc 40 (unit not given); 5'; DRC-2) was 45%, the “% inhibition Apol 40'” value (conc 40 (unit not given); 40'; DRC-2) was 49% and the “% inhibition ApPOL 90'” value (conc 40 (unit not given); 90'; DRC-2) was 45%. For the same compound, the “% inhibition Apo pol 5'” value (conc 80 (unit not given); 5'; DRC-2) was 49%, the “% inhibition Apol 40'” value (conc 80 (unit not given); 40'; DRC-2) was 61% and the “% inhibition ApPOL 90'” value (conc 80 (unit not given); 90'; DRC-2) was 61%. The “DNA Pol” value (primary screen hit value, DNA Pol (186 hits); 90 min, 10 µM) was 40.

In the case of `O=C(O)c1c(F)c(F)c(-c2c(F)c(F)c(C(=O)O)c(F)c2F)c(F)c1F` [KU0008974], the “DNA Pol” value (186 hits, value of the hit list (primary screen); unit not given; 90 min, 10 µM) is reported as 36, the “% inhibition Apo pol 10'” value (DRC-1; 10'; concentration 2.5) is reported as 9.435% and the “% inhibition Apo pol 10'” value (DRC-1; 10'; concentration 5) is reported as 13.4595%. The “% inhibition Apo pol 10'” value (DRC-1; 10'; concentration 10) was 21.422%, the “% inhibition Apo pol 10'” value (DRC-1; 10'; concentration 20) was 42.0339% and the “% inhibition Apo pol 10'” value (DRC-1; 10'; concentration 40) was 61.4201%. For the same compound, the “% inhibition Apo pol 10'” value (DRC-1; 10'; concentration 80) was 59.9111%, the “% inhibition Apol 90'” value (DRC-1; 90'; concentration 2.5) was 3.377% and the “% inhibition Apol 90'” value (DRC-1; 90'; concentration 5) was 7.4359%. The “% inhibition Apol 90'” value (DRC-1; 90'; concentration 10) was 14.2426%, the “% inhibition Apol 90'” value (DRC-1; 90'; concentration 20) was 33.67% and the “% inhibition Apol 90'” value (DRC-1; 90'; concentration 40) was 52.8962%. The “% inhibition Apol 90'” value (DRC-1; 90'; concentration 80) was 50.0149%, the “% inhibition apPOL 180'” value (DRC-1; 180'; concentration 2.5) was -2.039% and the “% inhibition apPOL 180'” value (DRC-1; 180'; concentration 5) was 0.5684%. The “% inhibition apPOL 180'” value (DRC-1; 180'; concentration 10) was 7.634%, the “% inhibition apPOL 180'” value (DRC-1; 180'; concentration 20) was 22.5458% and the “% inhibition apPOL 180'” value (DRC-1; 180'; concentration 40) was 40.2712%. The “% inhibition apPOL 180'” value (DRC-1; 180'; concentration 80) was 38.6937%, the “% inhibition Apo pol 5'” value (DRC-2, 5', concentration 2.5) was 4% and the “% inhibition Apo pol 5'” value (DRC-2, 5', concentration 5) was 5%. The “% inhibition Apo pol 5'” value (DRC-2, 5', concentration 10) was 17%, the “% inhibition Apo pol 5'” value (DRC-2, 5', concentration 20) was 29% and the “% inhibition Apo pol 5'” value (DRC-2, 5', concentration 40) was 17%. The “% inhibition Apo pol 5'” value (DRC-2, 5', concentration 80) was 35%, the “% inhibition Apol 40'” value (DRC-2, 40', concentration 2.5) was 5% and the “% inhibition Apol 40'” value (DRC-2, 40', concentration 5) was 9%. For the same compound, the “% inhibition Apol 40'” value (DRC-2, 40', concentration 10) was 23%, the “% inhibition Apol 40'” value (DRC-2, 40', concentration 20) was 41% and the “% inhibition Apol 40'” value (DRC-2, 40', concentration 40) was 20%. The “% inhibition Apol 40'” value (DRC-2, 40', concentration 80) was 47%, the “% inhibition ApPOL 90'” value (DRC-2, 90', concentration 2.5) was 2.67% and the “% inhibition ApPOL 90'” value (DRC-2, 90', concentration 5) was 7.58%. For the same compound, the “% inhibition ApPOL 90'” value (DRC-2, 90', concentration 10) was 21%, the “% inhibition ApPOL 90'” value (DRC-2, 90', concentration 20) was 39% and the “% inhibition ApPOL 90'” value (DRC-2, 90', concentration 40) was 19%. For the same compound, the “% inhibition ApPOL 90'” value (DRC-2, 90', concentration 80) was 47%, the “% inhibition apPOL 180'” value (DRC-2, 180', concentration 2.5) was -4% and the “% inhibition apPOL 180'” value (DRC-2, 180', concentration 5) was -1%. The “% inhibition apPOL 180'” value (DRC-2, 180', concentration 10) was 12%, the “% inhibition apPOL 180'” value (DRC-2, 180', concentration 20) was 30% and the “% inhibition apPOL 180'” value (DRC-2, 180', concentration 40) was 14%. The “% inhibition apPOL 180'” value (DRC-2, 180', concentration 80) was 40%, the “% inhibition Apo pol 5'” value (DRC-2; 5'; concentration 5) was 5% and the “% inhibition Apo pol 5'” value (DRC-2; 5'; concentration 10) was 17%. For the same compound, the “% inhibition Apo pol 5'” value (DRC-2; 5'; concentration 40) was 17%, the “% inhibition Apol 40'” value (DRC-2; 40'; concentration 2.5) was 5% and the “% inhibition Apol 40'” value (DRC-2; 40'; concentration 80) was 47%. For the same compound, the “% inhibition ApPOL 90'” value (DRC-2; 90'; concentration 80) was 47% and the “DNA Pol” value (primary screen value, 'DNA Pol' only; 90 min, 10 µM) was 36.
